Laboratory results as given in patent publication US10774102B2, “Galactoside inhibitor of galectins” (Galecto Biotech AB, priority 2015, dated 2020).

Target: galectin-3 (Homo sapiens (Human), UniProt P17931)
Assay: Fluorescence anisotropy assay of galectin-3 affinity (compound inhibits galectin binding to a fluorescein tagged saccharide probe)
Settings: high affinity probe, 50 nM galectin-3, 100 nM albumin
Experimental: 100 nM albumin was included as a carrier to prevent protein loss at such low concentration of galectin.

galectin-3, sequence (P17931 whole entry): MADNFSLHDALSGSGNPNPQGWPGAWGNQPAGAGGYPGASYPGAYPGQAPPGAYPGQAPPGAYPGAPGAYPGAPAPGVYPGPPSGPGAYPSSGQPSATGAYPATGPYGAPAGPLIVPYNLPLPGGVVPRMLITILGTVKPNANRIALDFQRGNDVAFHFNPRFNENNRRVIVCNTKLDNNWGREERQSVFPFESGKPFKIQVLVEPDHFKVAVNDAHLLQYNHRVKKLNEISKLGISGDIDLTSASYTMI

Row | Compound | Kd
1 | OC[C@H]1O[C@H](Oc2cccc(Cl)c2)[C@H](O)[C@@H](n2cc(-c3cc(F)c(F)c(F)c3)nn2)[C@H]1O [Example 33, 3-Chlorophenyl 3-deoxy-3-[4-(3,4,5-trifluorophenyl)-1H-1,2,3-triazol-1-yl]-α-D-galactopyranoside] | 250 nM
2 | OC[C@H]1O[C@H](Sc2ccc(Br)cc2)[C@H](O)[C@@H](n2cc(-c3cc(F)c(F)c(F)c3)nn2)[C@H]1O [Example 15, 4-Bromophenyl 3-deoxy-3-[4-(3,4,5-trifluorophenyl)-1H-1,2,3-triazol-1-yl]-1-thio-α-D-galactopyranoside] | 520 nM
3 | OC[C@H]1O[C@H](Sc2cccc(OC(F)(F)F)c2)[C@H](O)[C@@H](n2cc(-c3cc(F)c(F)c(F)c3)nn2)[C@H]1O [Example 20, 3-(Trifluoromethoxy)phenyl 3-deoxy-3-[4-(3,4,5-trifluorophenyl)-1H-1,2,3-triazol-1-yl]-1-thio-α-D-galactopyranoside] | 500 nM
4 | OC[C@H]1O[C@H](Sc2ccc(F)c(Cl)c2)[C@H](O)[C@@H](n2cc(-c3cc(F)c(F)c(F)c3)nn2)[C@H]1O [Example 28, 3-Chloro-4-fluorophenyl 3-deoxy-3-[4-(3,4,5-trifluorophenyl)-1H-1,2,3-triazol-1-yl]-1-thio-α-D-galactopyranoside] | 48 nM
5 | OC[C@H]1O[C@H](Sc2cc(Cl)ccc2Cl)[C@H](O)[C@@H](n2cc(-c3cc(F)c(F)c(F)c3)nn2)[C@H]1O [Example 37, 2,5-Dichlorophenyl 3-deoxy-3-[4-(3,4,5-trifluorophenyl)-1H-1,2,3-triazol-1-yl]-1-thio-α-D-galactopyranoside] | 84 nM
6 | [O-][S+](c1ccc(Cl)cc1)[C@H]1O[C@H](CO)[C@H](O)[C@H](n2cc(-c3cc(F)c(F)c(F)c3)nn2)[C@H]1O (stereo partly drawn) [Example 26, 4-Chlorophenyl 3-deoxy-3-[4-(3,4,5-trifluorophenyl)-1H-1,2,3-triazol-1-yl]-α-D-galactopyranosyl sulfoxide] | 770 nM
7 | OCC1O[C@H](Sc2ccc3ccccc3c2)C(O)[C@@H](n2cc(-c3cc(F)c(F)c(F)c3)nn2)[C@H]1O (stereo partly drawn) [Example 12, 2-Naphtyl 3-deoxy-3-[4-(3,4,5-trifluorophenyl)-1H-1,2,3-triazol-1-yl]-1-thio-α-D-galactopyranoside] | 180 nM
8 | OC[C@H]1O[C@H](Sc2ccc(Cl)cc2)[C@H](O)[C@@H](n2cc(-c3cc(F)c(F)c(F)c3)nn2)[C@H]1O [Example 23, 4-Chlorophenyl 3-deoxy-3-[4-(3,4,5-trifluorophenyl)-1H-1,2,3-triazol-1-yl]-1-thio-α-D-galactopyranoside] | 200 nM

Compounds with a lower Kd, results first:

Row | Kd | Compound
9 | 23 nM | [O-][S+](c1cccc(Br)c1)[C@H]1O[C@H](CO)[C@H](O)[C@H](n2cc(-c3cc(F)c(F)c(F)c3)nn2)[C@H]1O (stereo partly drawn) [Example 39, 3-Bromophenyl 3-deoxy-3-[4-(3,4,5-trifluorophenyl)-1H-1,2,3-triazol-1-yl]-α-D-galactopyranosyl sulfoxide]
10 | 2 nM | [O-][S+](c1ccc(Cl)c(Cl)c1)[C@H]1O[C@H](CO)[C@H](O)[C@H](n2cc(-c3c(F)c(F)c(F)c(F)c3F)nn2)[C@H]1O (stereo partly drawn) [Example 42, 3,4-Dichlorophenyl 3-deoxy-3-[4-(2,3,4,5,6-pentafluorophenyl)-1H-1,2,3-triazol-1-yl]-α-D-galactopyranosyl sulfoxide]
11 | 37 nM | OC[C@H]1O[C@H](Sc2cccc(Br)c2)[C@H](O)[C@@H](n2cc(-c3cc(F)c(F)c(F)c3)nn2)[C@H]1O [Example 2, 3-Bromophenyl 3-deoxy-3-[4-(3,4,5-trifluorophenyl)-1H-1,2,3-triazol-1-yl]-1-thio-α-D-galactopyranoside]
12 | 24 nM | OC[C@H]1O[C@H](Sc2ccc(F)c(Br)c2)[C@H](O)[C@@H](n2cc(-c3cc(F)c(F)c(F)c3)nn2)[C@H]1O [Example 60, 3-Bromo-4-fluorophenyl 3-deoxy-3-[4-(3,4,5-trifluorophenyl)-1H-1,2,3-triazol-1-yl]-1-thio-α-D-galactopyranoside]
